Measurements reported in ChEMBL document CHEMBL6134768, “Design, synthesis, and structure-activity relationship studies of 6H-benzo[b]indeno[1,2-d]thiophen-6-one derivatives as DYRK1A/CLK1/CLK4/haspin inhibitors” (RSC Med Chem, 2025).
pIC50: −log10 of the molar value. Values belong to the molecule of their own block, whether it stands above or below them.

Columns and labels:
[1] = rat, microsomes
[2] = Metabolic stability in rat liver microsomes assessed as half life; assay type: ADME, Microsome
[3] = target: Dual specificity tyrosine-phosphorylation-regulated kinase 1B (Homo sapiens) (UniProt Q9Y463); assay: Inhibition of human GST-tagged DYRK1B extracted from Escherichia coli assessed as residual activity using gamma-32 ATP and KKISGRLSPIMTEQ as substrate at 1 uM by radiometric kinase assay relative to control
U-87 MG = assay: cells; conditions: Homo sapiens, 72 h
cells = conditions: Homo sapiens, U373 MG, 72 h
[4] = Metabolic stability in rat liver microsomes assessed as degradation; assay type: ADME, Microsome; conditions: read-out: Drug degradation
[5] = target: SRSF protein kinase 2 (Homo sapiens) (UniProt P78362); assay: Inhibition of SRPK2 (unknown origin) at 0.35 uM by Z-LYTE kinase activity assay relative to control
[6] = target: T1, Serine/threonine-protein kinase haspin (Homo sapiens, UniProt Q8TF76); assay: Inhibition of GSG2 (haspin) (unknown origin) by radiometric assay relative to control
T1 sequence (Q8TF76 whole entry): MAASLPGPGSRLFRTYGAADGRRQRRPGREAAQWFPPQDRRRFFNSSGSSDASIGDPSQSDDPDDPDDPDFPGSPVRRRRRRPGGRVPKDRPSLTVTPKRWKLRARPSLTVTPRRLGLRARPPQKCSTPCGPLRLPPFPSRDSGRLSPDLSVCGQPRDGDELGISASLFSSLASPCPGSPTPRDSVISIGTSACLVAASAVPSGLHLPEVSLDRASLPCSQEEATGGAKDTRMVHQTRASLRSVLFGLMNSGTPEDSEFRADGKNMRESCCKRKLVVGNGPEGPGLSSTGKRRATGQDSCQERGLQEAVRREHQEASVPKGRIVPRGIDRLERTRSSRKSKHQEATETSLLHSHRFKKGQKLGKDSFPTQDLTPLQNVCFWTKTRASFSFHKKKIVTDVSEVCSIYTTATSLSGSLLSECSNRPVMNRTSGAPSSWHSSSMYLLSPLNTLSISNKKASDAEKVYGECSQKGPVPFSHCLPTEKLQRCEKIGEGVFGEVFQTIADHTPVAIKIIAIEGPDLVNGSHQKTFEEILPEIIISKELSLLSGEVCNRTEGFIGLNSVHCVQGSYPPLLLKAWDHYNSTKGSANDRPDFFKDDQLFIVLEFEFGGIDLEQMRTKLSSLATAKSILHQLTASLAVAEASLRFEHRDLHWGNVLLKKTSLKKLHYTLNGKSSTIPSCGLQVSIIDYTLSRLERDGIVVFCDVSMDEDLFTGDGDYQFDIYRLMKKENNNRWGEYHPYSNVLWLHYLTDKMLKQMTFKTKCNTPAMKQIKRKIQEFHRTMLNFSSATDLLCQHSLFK

[7] = target: T2, Serine/threonine-protein kinase haspin (Homo sapiens) (UniProt Q8TF76); assay: Inhibition of GSG2 (haspin) (unknown origin) at 0.35 uM by Adapta kinase activity assay relative to control
T2 sequence (whole entry): T1 sequence (Q8TF76 whole entry)

[8] = target: T3, Dual specificity protein kinase CLK4 (Homo sapiens, UniProt Q9HAZ1); assay: Inhibition of CLK4 (unknown origin) by radiometric assay relative to control
Target sequence in this assay (Q9HAZ1 whole entry): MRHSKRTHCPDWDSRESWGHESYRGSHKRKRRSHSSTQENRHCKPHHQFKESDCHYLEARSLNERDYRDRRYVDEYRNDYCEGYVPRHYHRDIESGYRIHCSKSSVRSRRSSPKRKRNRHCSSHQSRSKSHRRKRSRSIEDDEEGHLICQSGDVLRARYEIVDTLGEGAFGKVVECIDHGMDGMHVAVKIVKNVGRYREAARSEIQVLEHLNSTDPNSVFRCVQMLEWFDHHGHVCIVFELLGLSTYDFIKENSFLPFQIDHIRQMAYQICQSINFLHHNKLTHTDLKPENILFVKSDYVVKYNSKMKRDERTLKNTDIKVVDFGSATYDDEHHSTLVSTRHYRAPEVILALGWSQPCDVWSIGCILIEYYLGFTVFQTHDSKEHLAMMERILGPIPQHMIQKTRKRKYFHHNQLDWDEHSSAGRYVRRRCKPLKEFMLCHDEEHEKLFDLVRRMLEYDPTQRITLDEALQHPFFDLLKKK

[9] = target: T3, Dual specificity protein kinase CLK4; assay: Inhibition of CLK4 (unknown origin) by LanthaScreen kinase binding assay relative to control
Target sequence in this assay (Q9HAZ1 whole entry): as above

[10] = target: Dual specificity protein kinase CLK1 (Homo sapiens) (UniProt P49759); assay: Inhibition of CLK1 (unknown origin) at 0.35 uM by radiometric assay relative to control
[11] = target: T4, Dual specificity tyrosine-phosphorylation-regulated kinase 3 (Homo sapiens) (UniProt O43781); assay: Inhibition of DYRK3 (unknown origin) at 0.35 uM by Z-LYTE kinase activity assay relative to control
T4 sequence (whole entry): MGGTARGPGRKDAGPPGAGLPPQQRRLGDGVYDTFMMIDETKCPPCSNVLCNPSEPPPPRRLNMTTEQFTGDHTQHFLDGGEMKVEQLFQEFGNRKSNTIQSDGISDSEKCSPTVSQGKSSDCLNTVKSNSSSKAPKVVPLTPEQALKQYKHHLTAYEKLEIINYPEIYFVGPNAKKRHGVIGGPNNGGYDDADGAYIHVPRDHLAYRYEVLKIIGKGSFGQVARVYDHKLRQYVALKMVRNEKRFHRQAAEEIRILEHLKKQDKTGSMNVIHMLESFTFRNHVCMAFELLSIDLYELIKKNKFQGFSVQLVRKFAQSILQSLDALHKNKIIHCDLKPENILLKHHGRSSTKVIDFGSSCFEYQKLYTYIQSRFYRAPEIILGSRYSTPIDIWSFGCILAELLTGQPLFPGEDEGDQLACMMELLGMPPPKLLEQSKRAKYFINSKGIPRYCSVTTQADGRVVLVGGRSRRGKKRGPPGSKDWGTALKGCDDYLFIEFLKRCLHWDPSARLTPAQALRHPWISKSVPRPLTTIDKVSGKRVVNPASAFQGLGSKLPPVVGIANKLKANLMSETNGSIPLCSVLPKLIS

[12] = target: Dual specificity protein kinase CLK3 (Homo sapiens) (UniProt P49761); assay: Inhibition of CLK3 (unknown origin) at 0.35 uM by Z-LYTE kinase activity assay relative to control
[13] = target: Serine/threonine-protein kinase pim-1 (Homo sapiens) (UniProt P11309); assay: Inhibition of PIM1 (unknown origin) at 0.35 uM by Z-LYTE kinase activity assay relative to control
[14] = target: Myosin light chain kinase 2, skeletal/cardiac muscle (Homo sapiens) (UniProt Q9H1R3); assay: Inhibition of MLCK2 (unknown origin) at 0.35 uM by LanthaScreen kinase binding assay relative to control
[15] = target: T3, Dual specificity protein kinase CLK4; assay: Inhibition of CLK4 (unknown origin) at 0.35 uM by radiometric assay relative to control
Target sequence in this assay (Q9HAZ1 whole entry, looked up): as the sequence (Q9HAZ1 whole entry) above

[16] = target: Epidermal growth factor receptor (Homo sapiens) (UniProt P00533); assay: Inhibition of EGFR (ErbB1) (unknown origin) at 0.35 uM by Z-LYTE kinase activity assay relative to control
[17] = target: SRSF protein kinase 1 (Homo sapiens) (UniProt Q96SB4); assay: Inhibition of SRPK1 (unknown origin) at 0.35 uM by Z-LYTE kinase activity assay relative to control
[18] = target: T3, Dual specificity protein kinase CLK4; assay: Inhibition of CLK4 (unknown origin) at 0.35 uM by LanthaScreen kinase binding assay relative to control
Target sequence in this assay (Q9HAZ1 whole entry, looked up): as the sequence (Q9HAZ1 whole entry) above

[19] = target: Serine/threonine-protein kinase 33 (Homo sapiens) (UniProt Q9BYT3); assay: Inhibition of STK33 (unknown origin) at 0.35 uM by LanthaScreen kinase binding assay relative to control
[20] = target: Cyclin-dependent kinase 5/CDK5 activator 1 (Homo sapiens) (UniProt Q00535+Q15078); assay: Inhibition of CDK5/p25 (unknown origin) at 0.35 uM by Z-LYTE kinase activity assay relative to control; assay type: protein-complex assay
[21] = target: BDNF/NT-3 growth factors receptor (Homo sapiens) (UniProt Q16620); assay: Inhibition of NTRK2 (TRKB) (unknown origin) at 0.35 uM by Z-LYTE kinase activity assay relative to control
[22] = target: T1, Serine/threonine-protein kinase haspin; assay: Inhibition of GSG2 (haspin) (unknown origin) by Adapta kinase activity assay relative to control
[23] = target: T5, Dual specificity tyrosine-phosphorylation-regulated kinase 2 (Homo sapiens) (UniProt Q92630); assay: Inhibition of DYRK2 (unknown origin) at 0.35 uM by LanthaScreen kinase binding assay relative to control
T5 sequence (whole entry): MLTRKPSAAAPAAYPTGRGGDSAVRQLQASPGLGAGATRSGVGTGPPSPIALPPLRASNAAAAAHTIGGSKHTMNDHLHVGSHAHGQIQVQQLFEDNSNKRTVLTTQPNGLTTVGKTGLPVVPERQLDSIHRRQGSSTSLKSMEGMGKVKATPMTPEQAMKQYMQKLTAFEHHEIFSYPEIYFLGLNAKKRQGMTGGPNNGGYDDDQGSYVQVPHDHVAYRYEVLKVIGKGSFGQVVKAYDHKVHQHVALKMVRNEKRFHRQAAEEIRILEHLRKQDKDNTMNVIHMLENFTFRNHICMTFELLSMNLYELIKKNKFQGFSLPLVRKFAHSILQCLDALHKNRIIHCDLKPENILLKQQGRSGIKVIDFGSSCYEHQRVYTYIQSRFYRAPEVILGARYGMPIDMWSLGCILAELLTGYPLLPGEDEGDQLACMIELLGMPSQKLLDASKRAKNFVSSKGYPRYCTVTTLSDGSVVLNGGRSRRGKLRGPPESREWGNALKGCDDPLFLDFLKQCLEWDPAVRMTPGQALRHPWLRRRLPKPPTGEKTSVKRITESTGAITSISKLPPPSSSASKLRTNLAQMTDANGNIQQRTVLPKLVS

[24] = target: T2, Serine/threonine-protein kinase haspin (Homo sapiens); assay: Inhibition of GSG2 (haspin) (unknown origin) at 0.35 uM by radiometric assay relative to control
[25] = target: T6, Serine/threonine-protein kinase 17A (Homo sapiens) (UniProt Q9UEE5); assay: Inhibition of STK17A (DRAK1) (unknown origin) at 0.35 uM by LanthaScreen kinase binding assay relative to control
T6 sequence (whole entry): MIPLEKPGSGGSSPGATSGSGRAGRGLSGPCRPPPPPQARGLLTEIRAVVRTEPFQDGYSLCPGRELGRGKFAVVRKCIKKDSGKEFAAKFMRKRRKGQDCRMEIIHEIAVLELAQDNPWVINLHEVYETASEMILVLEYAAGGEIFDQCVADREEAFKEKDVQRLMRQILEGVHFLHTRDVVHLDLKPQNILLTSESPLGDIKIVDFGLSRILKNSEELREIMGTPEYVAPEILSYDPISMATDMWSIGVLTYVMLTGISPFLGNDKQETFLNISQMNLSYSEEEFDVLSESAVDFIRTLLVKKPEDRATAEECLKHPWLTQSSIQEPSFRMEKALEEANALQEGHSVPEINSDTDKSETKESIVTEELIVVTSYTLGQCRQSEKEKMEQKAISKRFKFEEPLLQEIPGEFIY

[26] = target: Homeodomain-interacting protein kinase 1 (Homo sapiens) (UniProt Q86Z02); assay: Inhibition of HIPK1 (Myak) (unknown origin) at 0.35 uM by Z-LYTE kinase activity assay relative to control
[27] = target: Dual specificity protein kinase CLK1 (Homo sapiens) (UniProt P49759); assay: Inhibition of CLK1 (unknown origin) at 0.35 uM by Z-LYTE kinase activity assay relative to control
[28] = target: Dual specificity tyrosine-phosphorylation-regulated kinase 1B (Homo sapiens) (UniProt Q9Y463); assay: Inhibition of DYRK1B (unknown origin) at 0.35 uM by Z-LYTE kinase activity assay relative to control
[29] = target: Dual specificity tyrosine-phosphorylation-regulated kinase 1B (Homo sapiens) (UniProt Q9Y463); assay: Inhibition of DYRK1B (unknown origin) at 0.35 uM by radiometric assay relative to control

Chain of Dual specificity tyrosine-phosphorylation-regulated kinase 1B (Homo sapiens) (Q9Y463 whole entry, looked up): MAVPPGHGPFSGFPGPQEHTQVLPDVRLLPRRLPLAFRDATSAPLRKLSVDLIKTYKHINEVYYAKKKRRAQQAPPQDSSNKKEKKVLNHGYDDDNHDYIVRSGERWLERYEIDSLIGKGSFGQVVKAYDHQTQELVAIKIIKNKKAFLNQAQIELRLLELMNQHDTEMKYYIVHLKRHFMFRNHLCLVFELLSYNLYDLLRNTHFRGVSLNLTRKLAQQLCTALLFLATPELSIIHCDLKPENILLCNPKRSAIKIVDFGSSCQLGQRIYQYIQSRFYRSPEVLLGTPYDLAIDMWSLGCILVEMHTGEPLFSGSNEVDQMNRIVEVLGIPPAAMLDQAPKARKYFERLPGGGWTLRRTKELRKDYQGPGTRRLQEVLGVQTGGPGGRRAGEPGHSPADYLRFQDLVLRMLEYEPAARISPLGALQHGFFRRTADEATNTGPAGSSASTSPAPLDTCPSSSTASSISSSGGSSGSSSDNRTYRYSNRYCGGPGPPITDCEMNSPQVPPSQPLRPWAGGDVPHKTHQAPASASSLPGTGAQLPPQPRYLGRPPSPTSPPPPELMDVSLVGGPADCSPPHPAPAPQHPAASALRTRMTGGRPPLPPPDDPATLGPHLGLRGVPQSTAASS
Chain of Dual specificity protein kinase CLK1 (Homo sapiens) (P49759 whole entry, looked up): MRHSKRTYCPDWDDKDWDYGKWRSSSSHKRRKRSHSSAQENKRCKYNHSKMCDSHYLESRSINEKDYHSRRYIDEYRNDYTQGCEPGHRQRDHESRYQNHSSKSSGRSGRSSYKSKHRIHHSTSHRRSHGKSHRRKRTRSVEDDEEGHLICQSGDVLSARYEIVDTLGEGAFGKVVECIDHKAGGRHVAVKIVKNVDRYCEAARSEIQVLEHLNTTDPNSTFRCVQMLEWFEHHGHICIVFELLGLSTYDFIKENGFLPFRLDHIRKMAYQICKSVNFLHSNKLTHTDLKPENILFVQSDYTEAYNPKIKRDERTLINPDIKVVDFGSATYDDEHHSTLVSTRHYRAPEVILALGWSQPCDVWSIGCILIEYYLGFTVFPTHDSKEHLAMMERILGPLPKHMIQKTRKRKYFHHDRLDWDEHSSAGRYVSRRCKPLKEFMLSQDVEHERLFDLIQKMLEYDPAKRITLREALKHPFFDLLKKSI
Chain of Cyclin-dependent kinase 5/CDK5 activator 1 (Homo sapiens) (Q00535 whole entry): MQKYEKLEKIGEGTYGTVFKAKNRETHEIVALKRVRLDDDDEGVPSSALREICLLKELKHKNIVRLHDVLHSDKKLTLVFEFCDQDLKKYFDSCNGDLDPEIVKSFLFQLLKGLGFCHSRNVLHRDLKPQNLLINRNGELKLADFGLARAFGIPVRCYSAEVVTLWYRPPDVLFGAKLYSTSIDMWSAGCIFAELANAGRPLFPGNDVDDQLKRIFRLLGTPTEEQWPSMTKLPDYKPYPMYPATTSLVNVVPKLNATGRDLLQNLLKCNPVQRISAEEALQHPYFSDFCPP
Chain of Cyclin-dependent kinase 5/CDK5 activator 1 (Homo sapiens) (Q15078 99-307 partner limits assumed): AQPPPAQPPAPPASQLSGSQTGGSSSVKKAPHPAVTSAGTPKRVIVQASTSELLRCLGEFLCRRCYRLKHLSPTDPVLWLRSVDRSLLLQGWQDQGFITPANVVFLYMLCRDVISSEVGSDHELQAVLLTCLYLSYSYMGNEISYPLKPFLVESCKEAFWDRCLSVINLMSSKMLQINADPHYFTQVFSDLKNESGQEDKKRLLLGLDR
Chain of BDNF/NT-3 growth factors receptor (Homo sapiens) (Q16620 32-822 limits assumed): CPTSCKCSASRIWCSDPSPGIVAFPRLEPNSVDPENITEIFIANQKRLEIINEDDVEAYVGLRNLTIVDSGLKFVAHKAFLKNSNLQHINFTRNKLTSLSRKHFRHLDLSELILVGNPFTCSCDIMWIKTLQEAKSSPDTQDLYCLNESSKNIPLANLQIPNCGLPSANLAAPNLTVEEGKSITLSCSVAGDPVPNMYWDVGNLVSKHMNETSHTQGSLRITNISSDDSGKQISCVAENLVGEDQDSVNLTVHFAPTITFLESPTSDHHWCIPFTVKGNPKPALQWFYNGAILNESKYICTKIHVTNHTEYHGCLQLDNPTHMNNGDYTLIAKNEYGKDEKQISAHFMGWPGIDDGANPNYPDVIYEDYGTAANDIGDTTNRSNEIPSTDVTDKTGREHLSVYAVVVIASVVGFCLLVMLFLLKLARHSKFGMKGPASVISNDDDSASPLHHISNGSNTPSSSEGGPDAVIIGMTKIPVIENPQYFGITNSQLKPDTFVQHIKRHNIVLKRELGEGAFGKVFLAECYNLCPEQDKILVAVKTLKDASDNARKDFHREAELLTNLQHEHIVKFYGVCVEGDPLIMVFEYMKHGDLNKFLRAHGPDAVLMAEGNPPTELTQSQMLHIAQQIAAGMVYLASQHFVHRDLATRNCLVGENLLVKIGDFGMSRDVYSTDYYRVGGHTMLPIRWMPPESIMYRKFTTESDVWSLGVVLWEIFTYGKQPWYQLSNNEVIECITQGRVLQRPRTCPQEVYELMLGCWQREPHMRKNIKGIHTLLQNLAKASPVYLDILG
Chain of Serine/threonine-protein kinase pim-1 (Homo sapiens) (P11309 whole entry, looked up): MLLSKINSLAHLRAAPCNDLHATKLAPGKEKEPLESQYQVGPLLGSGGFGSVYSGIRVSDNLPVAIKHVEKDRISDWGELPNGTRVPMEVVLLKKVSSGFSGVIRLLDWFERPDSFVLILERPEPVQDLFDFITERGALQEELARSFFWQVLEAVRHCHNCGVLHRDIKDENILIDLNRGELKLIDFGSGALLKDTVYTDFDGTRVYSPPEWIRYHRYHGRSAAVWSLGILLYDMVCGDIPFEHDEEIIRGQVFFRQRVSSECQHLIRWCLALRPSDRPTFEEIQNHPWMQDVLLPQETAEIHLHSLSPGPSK
Chain of Myosin light chain kinase 2, skeletal/cardiac muscle (Homo sapiens) (Q9H1R3 whole entry): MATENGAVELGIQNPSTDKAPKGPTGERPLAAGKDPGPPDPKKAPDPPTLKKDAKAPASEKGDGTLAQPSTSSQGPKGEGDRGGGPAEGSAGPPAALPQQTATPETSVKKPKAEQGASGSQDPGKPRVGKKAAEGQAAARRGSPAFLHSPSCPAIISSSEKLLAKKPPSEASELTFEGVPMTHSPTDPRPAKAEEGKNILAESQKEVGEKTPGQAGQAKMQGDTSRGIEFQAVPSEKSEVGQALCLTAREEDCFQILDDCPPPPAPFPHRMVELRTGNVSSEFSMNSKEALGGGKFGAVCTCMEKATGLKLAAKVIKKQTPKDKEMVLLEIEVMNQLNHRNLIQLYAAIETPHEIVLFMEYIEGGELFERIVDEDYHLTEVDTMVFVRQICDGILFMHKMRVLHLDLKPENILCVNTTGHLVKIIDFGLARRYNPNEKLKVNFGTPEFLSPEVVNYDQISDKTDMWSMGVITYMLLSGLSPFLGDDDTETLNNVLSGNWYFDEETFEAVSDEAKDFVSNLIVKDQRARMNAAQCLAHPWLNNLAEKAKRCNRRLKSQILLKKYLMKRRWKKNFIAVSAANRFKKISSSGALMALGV
Chain of Serine/threonine-protein kinase 33 (Homo sapiens) (Q9BYT3 whole entry, looked up): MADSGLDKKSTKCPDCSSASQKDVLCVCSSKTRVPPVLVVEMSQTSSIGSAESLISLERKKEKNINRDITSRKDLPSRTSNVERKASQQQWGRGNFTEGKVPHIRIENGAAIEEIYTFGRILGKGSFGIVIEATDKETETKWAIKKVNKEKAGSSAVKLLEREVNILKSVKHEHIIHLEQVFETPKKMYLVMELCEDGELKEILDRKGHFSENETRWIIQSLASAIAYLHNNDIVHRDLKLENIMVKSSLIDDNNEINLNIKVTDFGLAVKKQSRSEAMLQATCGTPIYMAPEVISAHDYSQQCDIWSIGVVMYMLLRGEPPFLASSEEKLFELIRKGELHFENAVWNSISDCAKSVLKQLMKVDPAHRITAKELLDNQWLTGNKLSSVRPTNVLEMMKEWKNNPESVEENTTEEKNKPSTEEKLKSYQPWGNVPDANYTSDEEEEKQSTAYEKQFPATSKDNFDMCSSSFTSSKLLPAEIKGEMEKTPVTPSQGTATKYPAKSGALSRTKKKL

CLH [1]: 355.5 µL/min/mg
t1/2 [2]: 6.5 min
Activity ([3]; INHIBITOR): < 5%
Compound: COc1cccc2c1-c1c(sc3ccccc13)C2=O

CLH [1]: 68.8 µL/min/mg
t1/2 [2]: 33.7 min
Activity ([3]; INHIBITOR): < 5%
Compound: COc1ccc2c(c1)-c1c(sc3ccccc13)C2=O

pIC50 (U-87 MG): < 4.00
Activity ([3]; INHIBITOR): < 5%
pIC50 (cells): < 4.00
Compound: O=C1c2ccccc2-c2c1sc1ccc(O)cc21

CLH [1]: 122 µL/min/mg
t1/2 [2]: 18.9 min
Activity ([3]; INHIBITOR): < 5%
Compound: COc1ccc2c(c1)C(=O)c1sc3ccc(OC)cc3c1-2

CLH [1]: 94.8 µL/min/mg
t1/2 [2]: 24.4 min
Activity ([3]; INHIBITOR): < 5%
Compound: COc1ccc2c(c1)C(=O)c1sc3ccccc3c1-2

CLH [1]: > 500 µL/min/mg
t1/2 [2]: < 5 min
Activity [3]: 68%
Compound: COc1ccc2sc3c(c2c1)-c1c(OC)cccc1C3=O

CLH [1]: 93.9 µL/min/mg
t1/2 [2]: 16.8 min
Activity [3]: 78%
Activity ([3]; INHIBITOR): < 5%
Compound: COc1ccc2c(c1)C(=O)c1sc3ccc(F)cc3c1-2

Activity [3]: 89%
metabolised [4]: 50%
Compound: COc1ccc2c(c1)-c1c(sc3ccc(O)cc13)C2=O

CLH [1]: > 500 µL/min/mg
t1/2 [2]: < 5 min
Activity ([3]; INHIBITOR): < 5%
Compound: COc1cccc2c1C(=O)c1sc3ccccc3c1-2

Activity ([3]; INHIBITOR): 7%
Compound: COc1ccc2sc3c(c2c1)-c1ccccc1C3=O

CLH [1]: 92.4 µL/min/mg
Activity ([3]; INHIBITOR): < 5%
Compound: COc1ccc2c(c1)-c1c(sc3ccc(OC)cc13)C2=O

Activity [3]: 78%
Compound: COc1cccc2c1C(=O)c1sc3ccc(O)cc3c1-2

inhibition [5]: 0%
pIC50 [6]: 7.12
inhibition [7]: 95%
pIC50 [8]: 7.59
pIC50 [9]: 7.85
inhibition [10]: 93%
inhibition [11]: 5%
inhibition [12]: 7%
pIC50 (U-87 MG): 4.34
inhibition [13]: 0%
inhibition [14]: 15%
inhibition [15]: 91%
inhibition [16]: 0%
inhibition [17]: 6%
inhibition [18]: 95%
inhibition [19]: 8%
Activity [3]: 93%
inhibition [20]: 8%
inhibition [21]: 0%
pIC50 [22]: 7.55
inhibition [23]: 66%
inhibition [24]: 88%
inhibition [25]: 42%
inhibition [26]: 0%
inhibition [27]: 16%
inhibition [28]: 57%
inhibition [29]: 47%
Compound: COc1ccc2c(c1)C(=O)c1sc3ccc(O)cc3c1-2
